In publication PMC12491701, “Discovery of an APP-selective BACE1 inhibitor for Alzheimer's disease” (Neurotherapeutics, 2025):
Several values for one entry are separate records, joined by “and”; a condition that tells them apart may be missing. Identical values can stand only once.

Tests used:
[1] = test system: CHO cells that express APP with the Swedish (Swe) K595N/M596L mutation; experiment: Aβ1-42 production in CHO-7W Swe cells; format: cell-based, Chinese hamster; conditions: 1 μM, 24-h treatment, in words
Protocol: The Chinese hamster ovary (CHO) cell line overexpressing human AβPP (7W) stably transfected with human APP or overexpressing APP with the Swedish (Swe) K595 N/M596L mutation were incubated with FAH compounds diluted to 1 μM overnight. Culture Media was collected and frozen. Media was assayed using an AlphaLISA for Aβ1-42 (Perkin Elmer catalog # AL276C), sAPPα (R&D Systems catalog # AF1168 conjugated with Perkin Elmer acceptor beads catalog # 6772001 + 2B3 antibody from IBL catalog # 11088 biotinylated), and sAPPβ (Perkin Elmer AL276-acceptor + IBL catalog # 18957 biotinylated). For the assay, 2 μL of diluted or undiluted sample was added to a 384 well plate, followed by 2 μL of the respective antibody mixture. This was incubated for 1 h. Afterwards, 2 μL of donor beads was added to each well, followed by a 30-min incubation in the dark, after which the signal was read.

[2] = test system: BACE1 cleavage of rat APP; experiment: Pilot PD of FAH65 vs. verubecestat in rats (CSF and medial cortex biomarkers); format: in vivo; conditions: oral, 30 mg/kg
Protocol: The hERG study was conducted at Eurofins (CEREP PanLabs).
Compound binding was calculated as a % inhibition of the binding of a radioactively labeled ligand specific for each target. While results showing an inhibition or stimulation higher than 50% are considered to
For these pilot experiments eAPP as described in Descamps et al (26) is crosslinked to a the CM5 Biacore chip. […] The raw data uncorrected for contribution of running buffer is fit to equilibrium binding data and corrected for the contribution of the running buffer to
pharmacokinetic (PK)/pharmacodynamic (PD) study to assess relative brain permeability and target engagement. Adult male and female Sprague-Dawley rats (≥ 200 g) were dosed at 30 mg/kg/day with
Animals were euthanized at 1, 2, 3, 6, 12 and 24 hours (n = 1/time point; 2 untreated controls) post-dose by pentobarbital over-anesthesia followed by collection of cerebrospinal fluid (CSF), trans-cardial blood collection for the isolation of plasma, perfusion with cold saline, and collection of brain tissue (medial cortex) for biochemical analyses (Fig. S3).

Plasma stability assay = format: in vitro ADME; conditions: human plasma diluted 2-fold in PBS, pH 7.4, 37 °C, 180 min, read-out: Plasma stability t1/2
Protocol: The effects of candidate ASBIs on BACE2 activity was assessed using the R&D Systems BACE2 activity assay kit (Catalog #: 4097-AS and ES010) formatted from to the manufacturers. For the assay, 4 μL of assay buffer was added to each well, followed by 2 μL of BACE2 diluted in assay buffer to 10 ng/µL.
Then, 2 μL of inhibitor, at the appropriate concentrations were added to the wells and incubated for 30 minutes at room temperature. For all dilutions of inhibitor, drug stock solutions of 10 mM in DMSO were diluted to 50 μM in water; subsequent dilutions were in 0.5% DMSO. Afterwards, 2 μL of fluorogenic BACE2 substrate, diluted to 50 μM in assay buffer, were added to each well, after which the signal generated was read every 30 minutes at 25 °C for 2 hr (Fig S2).
FAH65 and its enantiomers at 10 mM in 100% DMSO was diluted in PBS pH 7.4 to 100, 10, 1, and 0.1 µM; plus, a vehicle-only control. The solutions were incubated at 37 °C for 90 min and centrifuged at 16K x g for 5 min. An aliquot of each supernatant was analyzed by LC-MS/MS. […]
Kinetic solubility (µM) was calculated using the trendline equation with maximum chromatographic peak area observed in the aqueous sample. […]
([…]® CAN, Chiral Technologies, Cat#H15L-109, 5 µm 50 x 4 mm). […] The retention time of the compound (tr) and injection peak were recorded.
The percent protein binding (P) was calculated using the following equations: […]

BACE1 = BACE1 (Homo sapiens, UniProt P56817); experiment: P5-P5′ BACE1 inhibition assay; format: biochemical; conditions: cell-free; read-out: BACE1 IC50 (P5-P5′ assay; BACE1-APP)
Sequence of BACE1 (P56817 46-501): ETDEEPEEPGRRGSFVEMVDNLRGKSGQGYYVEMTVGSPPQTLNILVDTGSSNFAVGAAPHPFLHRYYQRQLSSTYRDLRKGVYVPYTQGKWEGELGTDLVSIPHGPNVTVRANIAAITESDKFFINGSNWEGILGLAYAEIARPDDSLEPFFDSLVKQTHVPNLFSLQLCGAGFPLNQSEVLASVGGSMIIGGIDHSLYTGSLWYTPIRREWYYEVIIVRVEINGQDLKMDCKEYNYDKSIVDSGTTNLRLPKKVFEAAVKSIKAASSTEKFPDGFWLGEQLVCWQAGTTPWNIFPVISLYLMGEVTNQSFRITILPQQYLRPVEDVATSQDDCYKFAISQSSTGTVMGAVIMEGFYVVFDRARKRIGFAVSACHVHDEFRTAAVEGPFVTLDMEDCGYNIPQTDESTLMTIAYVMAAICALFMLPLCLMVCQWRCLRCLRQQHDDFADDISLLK
Protocol: For the P5-P5′ BACE1 inhibition assay, 4 ​μL of assay buffer was added to each well, followed by 2 ​μL of BACE1 diluted in assay buffer to 7.5 ​ng/μL. Then, 2 ​μL of inhibitor, at concentrations along an 11 ​pt. two-fold dilution series starting at 10 ​μM, or 0.5 ​μM, were added to appropriate wells and incubated for 30 ​min at room temperature. For all dilutions of inhibitor, drug stock solutions of 10 ​mM in DMSO were diluted to 50 ​μM in water; subsequent dilutions were in 0.5 ​% DMSO. Afterwards, 2 ​μL of fluorogenic P5-P5′ BACE1 substrate, diluted to 50 ​μM in assay buffer, were added to each well and the signal generated was read every 30 ​min at 25 ​°C for 2 ​h.

half-life at 1 µM (Plasma stability assay): > 3 h
IC50 (BACE1): 7 nM and 10 to 30 nM and 10 nM and ~10 nM
SMILES: Cc1cc(C2(c3cccc(-c4cncnc4)c3)N=C(N)N(C)C2=O)ccc1OC(F)F (centres unmarked) [FAH65]
Aβ1-42 [1]: significantly decreases
time post-delivery of lowest sAPPβ in brain (medial cortex) [2]: 6 h
time post-delivery of lowest sAPPβ in CSF ([2]; 1- and 2-h FAH65 samples not available): 3 h
Aβ1-40 in CSF compared with Veru-treated rats ([2]; in words): lower
sAPPα levels in brain medial cortex ([2]; in words): higher
sAPPβ in CSF compared with Veru ([2]; in words): lower
